BindingDB's records for doi:10.7270/Q28P5XZM (Nmmlsc, 2011)

Target: T1, General amino acid permease AGP1 (Saccharomyces cerevisiae (strain ATCC 204508 / S288c), UniProt P25376)
T1 sequence (P25376 whole entry): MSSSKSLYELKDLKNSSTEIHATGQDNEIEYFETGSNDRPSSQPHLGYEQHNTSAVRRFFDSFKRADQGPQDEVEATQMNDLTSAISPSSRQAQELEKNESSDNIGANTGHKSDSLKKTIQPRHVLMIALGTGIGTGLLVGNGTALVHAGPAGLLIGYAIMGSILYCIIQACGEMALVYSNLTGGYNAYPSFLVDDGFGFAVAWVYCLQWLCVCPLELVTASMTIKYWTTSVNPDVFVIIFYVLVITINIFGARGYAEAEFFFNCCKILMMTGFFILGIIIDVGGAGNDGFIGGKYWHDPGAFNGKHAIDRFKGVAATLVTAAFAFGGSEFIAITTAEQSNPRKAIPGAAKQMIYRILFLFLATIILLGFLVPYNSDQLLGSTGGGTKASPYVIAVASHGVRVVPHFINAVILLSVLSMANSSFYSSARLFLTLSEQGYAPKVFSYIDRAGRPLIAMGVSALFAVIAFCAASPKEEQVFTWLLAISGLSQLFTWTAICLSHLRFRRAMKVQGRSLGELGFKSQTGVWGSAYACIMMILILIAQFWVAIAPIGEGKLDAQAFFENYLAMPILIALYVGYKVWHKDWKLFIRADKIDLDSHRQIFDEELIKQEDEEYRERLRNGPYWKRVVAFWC
Assay: AGP1-GFP level modulation, analog dose series – cell-based, flow cytometry, S. cerevisiae, cherry pick 3, SAR follow-up (AID 488790)
Settings: inactive by the depositor's call

| Compound | EC50 [µM] |
| --- | --- |
| Cc1ccc(C(=O)Nc2nc(-c3ccccn3)cs2)o1 [5-methyl-N-[4-(2-pyridinyl)-2-thiazolyl]-2-furancarboxamide] | 775 |
| Nc1ncnc(Nc2cc(Cl)cc(Cl)c2)c1[N+](=O)[O-] [MLS000581561] | 76.4 |
